Data on six compounds can be found in ChEMBL document CHEMBL1127089, “Non-nucleoside inhibitors of HIV-1 reverse transcriptase: molecular modeling and X-ray structure investigations” (J Med Chem, 1993).

The structures appear in SMILES notation.

In this assay the target is Human immunodeficiency virus type 1 reverse transcriptase (Human immunodeficiency virus 1, UniProt Q72547). The experiment in a line: In vitro for inhibitory activity against HIV-1 Reverse Transcriptase.
For the compound `O=C1c2ccccc2[C@@]23CC=CCC12c1ccccc1C3=O` (stereo partly specified), half-maximal inhibition (IC50) was put at 8700 nM.

`O=C1c2ccccc2[C@H]2SCCN1c1ccccc12` yielded a concentration for half-maximal inhibition (IC50) of 830 nM. Against the preceding compound, the IC50 is about 10-fold lower.

`O=C1c2ccccc2C2(c3ccccc3)SCCN12` (stereo unspecified): the half-inhibitory concentration (IC50) turned out to be 280 nM.

`CC(C)=CCN1Cc2cccc3[nH]c(=S)n(c23)C[C@@H]1C` registered a half-maximal inhibitory concentration (IC50) of 160 nM.

As to `Cc1cccc(C23SCCN2C(=O)c2ccccc23)c1` (stereo unspecified), the IC50 stood at 30 nM.

Regarding `O=C1c2ccccc2C2(c3cccc4ccccc34)SCCN12` (stereo unspecified), the IC50 worked out at 150 nM.

A word on the IC50: it is the concentration at which inhibition is half-maximal. Lower therefore signals greater potency.
